In series [1] the test system is Duck Hepatitis B Virus (DHBV). Kind of series: Intracellular viral RNA and DNA replicative forms in infected PDH (Northern and Southern blot). It counts as cell-based. Conditions: 5 days, 3-TC as control. How it is done: (§1) To determine whether the decrease in DHBV secretion is caused by an inhibition of virus replication, LMH-D2 cells and PDHs were treated with different concentration of Deca-(Arg)8 followed by quantification of viral RNA and intracellular DNA replication intermediates by Northern and Southern blot, respectively. As a control, cells were treated by 3-TC, which is a specific inhibitor of the DHBV polymerase, [33]. […] An unspecific effect on transcription can be excluded as mRNA synthesis in transfected LMH-D2 cells was not impaired.
(§2) Figure 4 Effect of Deca-(Arg)8 on the intracellular hepadnavirus intermediate replicative forms. Infected PDH (A), and stably DHBV-transfected LMH-D2 (B) cells were treated with different amounts of Deca-(Arg)8 ranking from 0.5 µM to 2 µM for 5 days. At the end of treatment, the cells were harvested and lysed for DNA and RNA extraction. […] For the Northern blot the level of DHBV RNA was normalized on the GAPDH RNA amount. […] Bands corresponding to the expected size of relaxed circular (RC), linear (L), single-stranded (SS) and covalently closed circular (ccc) DHBV DNA are indicated. […]
(§3) Cells supernatants were harvested daily, spotted onto positively charged nylon membrane and extracellular DHBV DNA was detected in supernatant of cells by dot blot hybridization assay using a full-length ^32P-labelled DHBV probe as described previously. […]

The test system of series [2] is Duck Hepatitis B Virus (DHBV). Kind of series: Intracellular viral RNA and DNA replicative forms in LMH-D2 cells (Northern and Southern blot). Type of series: cell-based. As to conditions: 5 days, Deca-(Arg)8 at 2 µM, 3-TC as control, Northern blot normalized on GAPDH RNA. The protocol: as §1, §2, §3
Series [3] has as its system Duck Hepatitis B Virus (DHBV). As to conditions: 16 h. How it is done:
(§4) Infected PDH and LMH-D2 cells were treated with 2 µM of several modified cationic peptides for 5 days. Cells supernatants were collected daily and were spotted onto positively charged nylon membrane and DHBV DNA was detected by hybridization with a DHBV DNA probe labeled with ^32P, and then was quantified by PhosphorImager scanning using ImageQuant software (Molecular Dynamics) to monitor DHBV release. Relative areas under curves determined by the means of duplicate, compared to untreated cells set at 100% are represented. […] Cell viability was determined by enzymatic activity MTT assay after daily incubation with different concentrations of Deca-(Arg)8 ranking from 1 µM to 4 µM during six days. The error bars display the standard deviation of duplicates in three independent experiments.
(§5) DHBV-infected PDHs (A), and stable transfected LMH-D2 cells (B) were treated with increasing amounts of Deca-(Arg)8 ranking from 0.25 µM to 2 µM in duplicates for 6 and 4 days, respectively. Cell culture supernatants were collected daily during treatment. The kinetics of viral release in cell culture supernatants, monitored by dot-blot hybridization and quantified by PhosphorImager scanning using ImageQuant software (Molecular Dynamics) is represented on the upper panel. Relative areas under curves determined by the means of duplicate, compared to untreated cells, are represented in the lower panel. The curves are representative of at least two independent experiments.
(§6) Primary duck hepatocytes (PDH) were isolated from Pekin duck embryos as previously described. DHBV infection was performed at the same time as plating by overnight incubation (16 h) of the hepatocytes with a virus-positive duck serum (30 virus genome equivalents (vge) per cell). The previously described avian hepatoma DHBV transfected LMH-D2 cell line, [38] was grown as previously described. The stably HBV-transfected cell line HepG2.2.15 was grown as previously described. Different amounts of CatLip were added daily to the culture medium from day 1 post-seeding and cells were lyzed at the end of treatment for analysis of intracellular viral DNA, RNA, and proteins. The growth medium was harvested and changed daily. The cellular toxicity was analyzed by daily examination of cells with a light microscope and by a cell toxicity test based on the (3-(4,5-dimethylthiazol-2-yl)-2,5 diphenyl-tetrazolium-bromide (MTT) assay.
(§7) Cells supernatants were harvested daily, spotted onto positively charged nylon membrane and extracellular DHBV DNA was detected in supernatant of cells by dot blot hybridization assay using a full-length ^32P-labelled DHBV probe as described previously. For DHBV intermediate replicative forms analysis, DNA was extracted from cells and 10 µg of the total cellular DNA were subjected to electrophoresis on 1% agarose gel, followed by Southern blot analysis and hybridization with ^32P-labeled genomic DHBV probe as previously described. Viral DNA was quantified by PhosphorImager scanning using ImageQuant software (Molecular Dynamics).

For series [4], the system named is Duck Hepatitis B Virus (DHBV). In words: Inhibition of DHBV release in stably DHBV-transfected LMH-D2 cells (dot-blot of supernatant DHBV DNA). Type of series: cell-based. Conditions: concentration of CPP resulting in 50% inhibition of DHBV release, peptide added daily, PhosphorImager. The protocol:
as §4, §5, §6, §7

Series [5] has as its system PDH. In words: MTT cell viability, PDH. It counts as cell-based, Pekin duck. Conditions: daily exposure 1 µM to 4 µM for 6 days, duplicates in three independent experiments. How it is done: (§8) Figure 1 Inhibition of DHBV release in PDHs and LMH-D2 cells by modified cationic peptides and effect of Deca-(Arg)8 on cell viability. Infected PDH and LMH-D2 cells were treated with 2 µM of several modified cationic peptides for 5 days. […] Relative areas under curves determined by the means of duplicate, compared to untreated cells set at 100% are represented. The two representations show the effect of modified cationic peptides derived from (Arg)8 sequence with increasing number of arginine in the peptide (A) or with increasing number of carbon in the fatty acid chain (B). Dose-dependent effects of Deca-(Arg)8 transduction on cell viability (C). Cell viability was determined by enzymatic activity MTT assay after daily incubation with different concentrations of Deca-(Arg)8 ranking from 1 µM to 4 µM during six days. The error bars display the standard deviation of duplicates in three independent experiments. […]
(§9) Primary duck hepatocytes (PDH) were isolated from Pekin duck embryos as previously described. […] The cellular toxicity was analyzed by daily examination of cells with a light microscope and by a cell toxicity test based on the (3-(4,5-dimethylthiazol-2-yl)-2,5 diphenyl-tetrazolium-bromide (MTT) assay.

Series [6] concerns LMH-D2 cells. Type of series: cell-based, avian. As to conditions: daily exposure 1 µM to 4 µM for 6 days, duplicates in three independent experiments. The protocol:
as §8, §9

Results on two compounds are retold here after PMC3500254, “Potent Inhibition of Late Stages of Hepadnavirus Replication by a Modified Cell Penetrating Peptide” (PLoS ONE, 2012).

Each structure is given as a SMILES string. pIC50: −log10 of the molar value. Like-named read-outs stand apart in the source and are kept apart here. Non-standard residues stand in square brackets, D forms with d. Residues, ends and D or L forms follow the SMILES beside them. *: point of attachment. Decanoyl = CCCCCCCCCC(=O)*

As for `Nc1ccn([C@@H]2CS[C@H](CO)O2)c(=O)n1` [3-TC, Lamivudine], the “viral RNA levels” value is “reduction of viral mRNA synthesis” in series [1] (PDH, Deca-(Arg)8 at 2 µM, Northern blot normalized on GAPDH RNA) and “not impaired” in series [2]. In addition, the cccDNA result in series [1] (infected PDH, Deca-(Arg)8 0.5 µM to 2 µM, Southern blot) is “prevented cccDNA formation”.

Regarding `CCCCCCCCCC(=O)N[C@H](Cc1c[nH]c2ccccc12)C(=O)N[C@H](CCCNC(=N)N)C(=O)N[C@H](CCCNC(=N)N)C(=O)N[C@H](CCCNC(=N)N)C(=O)N[C@H](CCCNC(=N)N)C(=O)N[C@H](CCCNC(=N)N)C(=O)N[C@H](CCCNC(=N)N)C(=O)N[C@H](CCCNC(=N)N)C(=O)N[C@H](CCCNC(=N)N)C(=O)NCC(N)=O` [Deca-(Arg)8] (Decanoyl-[dW][dR][dR][dR][dR][dR][dR][dR][dR]G-NH2), the values for the pIC50 in series [3] and in series [4] were 6.22 and 6.52, respectively. Also, the “cell viability (MTT) versus untreated cells” value in series [5] and in series [6] was “No statistically significant difference” each time.
